Here are results for two molecules from ChEMBL document CHEMBL1148930, “DNA polymerase beta lyase inhibitors from Maytenus putterlickoides” (J Nat Prod, 2004).

The subject of test [1] is A549. Put plainly: Cytotoxicity against human A549 cells assessed as cell viability at 200 uM after 48 hrs by MTT assay relative to control. It is filed as functional. The settings on record: A549, 48 h, read-out: Activity. In general terms: Tetrazolium dyes change colour on reduction, which living cells bring about.
In test [2] the test system is A549. Description: Cytotoxicity against human A549 cells assessed as cell viability at 62.5 uM after 48 hrs by MTT assay relative to control. Type of test: functional. The note with it: A549, 48 h, read-out: Activity.
Test [3] concerns the target DNA polymerase beta (Rattus norvegicus, UniProt P06766). Put plainly: Inhibition of lyase activity of rat DNA polymerase beta after 30 mins by deoxyribose phosphate excision assay.
The test system of test [4] is A549. Description: Potentiation of methyl methanesulfonate-induced cytotoxicity against human A549 cells assessed as cell viability after 48 hrs by MTT assay relative to control. Type of test: functional.

Regarding `C=C(COC(=O)c1ccc(O)cc1)[C@@H]1CC[C@]2(C)CC[C@]3(C)[C@H](C[C@@H](O)[C@@H]4[C@@]5(C)CCC(=O)C(C)(C)[C@@H]5CC[C@]43C)[C@@H]12`, the viability at 200 µM in test [1] amounted to 100%. Besides, the viability at 62.5 µM in test [2] was determined as 100%. The same molecule returned an IC50 in test [3] of 62.8 µM. Moreover, in test [4], the Activity is on record as 100%.
Turning to `Oc1cc(O)c2c(c1)O[C@H](c1ccc(O)c(O)c1)[C@H](O)C2` [(-)-EPICATECHIN], the viability at 200 µM in test [1] is 100%. In addition, the viability at 62.5 µM in test [2] stood at 100%. Moreover, in test [3], the IC50 was found to be 18.5 µM. Also, the Activity in test [4] amounted to 86.6%.

As usually defined, the IC50 is the concentration at which inhibition is half-maximal. Low values mean inhibition by little substance, high ones a need for much substance.
